Results as given in PMC8286840, “Identifying SARS-CoV-2 antiviral compounds by screening for small molecule inhibitors of Nsp3 papain-like protease” (Biochemical Journal, 2021).
Structures can show the parent of a compound that is named as a salt. Where two headings read alike, the source gives them in different places.

Experiments:
[1] = target: T1, SARS-CoV-2 PLpro (nsp3 1564–1878) (Severe acute respiratory syndrome coronavirus 2, UniProt P0DTD1); test: biochemical; design: FRET-quenched peptide (Pro3) cleavage by PLpro, 10 min pre-incubation, slope over 20 min, normalised to no-compound control; conditions: low concentration screen, read-out: % of control remaining
[2] = target: T1, SARS-CoV-2 PLpro (nsp3 1564–1878); test: biochemical; design: FRET-quenched peptide (Pro3) cleavage by PLpro, 10 min pre-incubation, slope over 20 min, normalised to no-compound control; conditions: high concentration screen, read-out: % of control remaining

## CC(=O)Oc1cc(C(C)C)c(OCCN(C)C)cc1C [Moxisylyte hydrochloride]
[1]; Well no.=976
  remaining activity at 1.25 µM: 103%
[2]; Well no.=976
  remaining activity at 3.75 µM: 101%

## COc1nc(C)nc(Cl)c1NC1=NCCN1 [Moxonidine hydrochloride]
[1]; Well no.=920
  remaining activity at 1.25 µM: 100%
[2]; Well no.=920
  remaining activity at 3.75 µM: 102%

## COc1nc(C)nc(Cl)c1NC1=NCCN1 [Moxonidine]
[1]; Well no.=4724
  remaining activity at 1.25 µM: 98.7%
[1]; Well no.=7423
  remaining activity at 1.25 µM: 106%
[2]; Well no.=4724
  remaining activity at 3.75 µM: 92.3%

## Cc1ccccc1C(=O)Nc1ccc(C(=O)N2CCCC(N(C)C)c3ccccc32)cc1 (stereo not shown) [Mozavaptan]
[1]; Well no.=4936
  remaining activity at 1.25 µM: 101%
[1]; Well no.=6515
  remaining activity at 1.25 µM: 93.2%
[2]; Well no.=4936
  remaining activity at 3.75 µM: 101%
[2]; Well no.=6515
  remaining activity at 3.75 µM: 96.3%

## OC[C@H]1O[C@@H](Oc2cc(O)cc(/C=C/c3ccc(O[C@@H]4O[C@H](CO)[C@@H](O)[C@H](O)[C@H]4O)cc3O)c2)[C@H](O)[C@@H](O)[C@@H]1O [Mulberroside A]
[1]; Well no.=6340
  remaining activity at 1.25 µM: 93%
[2]; Well no.=6340
  remaining activity at 3.75 µM: 90.9%

## NCc1cc(O)no1 [Muscimol hydrobromide]
[1]; Well no.=556
  remaining activity at 1.25 µM: 95.9%
[2]; Well no.=556
  remaining activity at 3.75 µM: 94.1%

## CCCCC(C#N)(Cn1cncn1)c1ccc(Cl)cc1 (stereo not shown) [Myclobutanil]
[1]; Well no.=2001
  remaining activity at 1.25 µM: 105%
[2]; Well no.=2001
  remaining activity at 3.75 µM: 102%

## COc1c(C)c2c(c(O)c1C/C=C(\C)CCC(=O)OCCN1CCOCC1)C(=O)OC2 [Mycophenolate mofetil]
[1]; Well no.=1923
  remaining activity at 1.25 µM: 103%
[2]; Well no.=1923
  remaining activity at 3.75 µM: 103%

## COc1c(C)c2c(c(O)c1C/C=C(\C)CCC(=O)O)C(=O)OC2 [Mycophenolic Acid]
[1]; Well no.=1553
  remaining activity at 1.25 µM: 100%
[1]; Well no.=3415
  remaining activity at 1.25 µM: 96.4%
[2]; Well no.=1553
  remaining activity at 3.75 µM: 99.9%
[2]; Well no.=3415
  remaining activity at 3.75 µM: 98.7%

## CCOC(=O)c1cnn(-c2ccccc2)c1NC(=O)c1cc2nc(-c3ccco3)cc(C(F)(F)Cl)n2n1 [Mycro 3]
[1]; Well no.=7158
  remaining activity at 1.25 µM: 96%
[2]; Well no.=7158
  remaining activity at 3.75 µM: 94.4%

## O=c1c(O)c(-c2cc(O)c(O)c(O)c2)oc2cc(O)cc(O)c12 [Myricetin]
[1]; Well no.=838
  remaining activity at 1.25 µM: 101%
[1]; Well no.=3324
  remaining activity at 1.25 µM: 103%
[1]; Well no.=6244
  remaining activity at 1.25 µM: 96.2%
[2]; Well no.=838
  remaining activity at 3.75 µM: 102%
[2]; Well no.=3324
  remaining activity at 3.75 µM: 108%
[2]; Well no.=6244
  remaining activity at 3.75 µM: 96.9%

## C[C@@H]1O[C@@H](Oc2c(-c3cc(O)c(O)c(O)c3)oc3cc(O)cc(O)c3c2=O)[C@H](O)[C@H](O)[C@H]1O [Myricitrin]
[1]; Well no.=3343
  remaining activity at 1.25 µM: 95.5%
[2]; Well no.=3343
  remaining activity at 3.75 µM: 97.9%

## CCCCCCC(=O)CCCCCC/C=C/C[C@@H](O)[C@H](O)[C@@](N)(CO)C(=O)O [Myriocin]
[1]; Well no.=3417
  remaining activity at 1.25 µM: 99.6%
[2]; Well no.=3417
  remaining activity at 3.75 µM: 101%

## CCCCCCCCCCCCCC(=O)O [Myristic acid]
[1]; Well no.=6979
  remaining activity at 1.25 µM: 101%
[2]; Well no.=6979
  remaining activity at 3.75 µM: 102%

## C=CCc1cc(OC)c2c(c1)OCO2 [Myristicin]
[1]; Well no.=3473
  remaining activity at 1.25 µM: 99%
[2]; Well no.=3473
  remaining activity at 3.75 µM: 99.9%

## CN(C)c1nc2c(ncn2[C@@H]2O[C@H](CO)[C@@H](O)[C@H]2O)c(=O)[nH]1 [N2,N2-Dimethylguanosine]
[1]; Well no.=6969
  remaining activity at 1.25 µM: 105%
[1]; Well no.=7820
  remaining activity at 1.25 µM: 104%
[2]; Well no.=6969
  remaining activity at 3.75 µM: 106%
[2]; Well no.=7820
  remaining activity at 3.75 µM: 104%

## CC(=O)Nc1ccn([C@@H]2O[C@H](COP(=O)(O)OP(=O)(O)OP(=O)(O)O)[C@@H](O)[C@H]2O)c(=O)n1 [N4-Acetylcytidine triphosphate (sodium)]
[1]; Well no.=7305
  remaining activity at 1.25 µM: 109%
[1]; Well no.=7964
  remaining activity at 1.25 µM: 95.2%
[2]; Well no.=7305
  remaining activity at 3.75 µM: 109%
[2]; Well no.=7964
  remaining activity at 3.75 µM: 92.1%

## CN(C)c1ncnc2c1ncn2[C@@H]1O[C@H](CO)[C@@H](O)[C@H]1O [N6,N6-Dimethyladenosine]
[1]; Well no.=7854
  remaining activity at 1.25 µM: 97.9%
[2]; Well no.=7854
  remaining activity at 3.75 µM: 102%

## Nc1ccc(CCNc2ncnc3c2ncn3[C@@H]2O[C@H](CO)[C@@H](O)[C@H]2O)cc1 [N6-2-(4-Aminophenyl)ethyladenosine]
[1]; Well no.=162
  remaining activity at 1.25 µM: 94.9%
[2]; Well no.=162
  remaining activity at 3.75 µM: 98%

## OC[C@H]1O[C@@H](n2cnc3c(NCCc4ccccc4)ncnc32)[C@H](O)[C@@H]1O [N6-2-Phenylethyladenosine]
[1]; Well no.=1453
  remaining activity at 1.25 µM: 98.5%
[2]; Well no.=1453
  remaining activity at 3.75 µM: 98.6%

## OC[C@H]1O[C@@H](n2cnc3c(NCCc4ccccc4)ncnc32)[C@H](O)[C@@H]1O [N6-(2-Phenylethyl)adenosine]
[1]; Well no.=8431
  remaining activity at 1.25 µM: 96.1%
[2]; Well no.=8431
  remaining activity at 3.75 µM: 96.2%

## OC[C@H]1O[C@@H](n2cnc3c(NCc4ccc(O)cc4)ncnc32)[C@H](O)[C@@H]1O [N6-(4-Hydroxybenzyl)adenosine]
[1]; Well no.=7233
  remaining activity at 1.25 µM: 106%
[1]; Well no.=7954
  remaining activity at 1.25 µM: 101%
[2]; Well no.=7233
  remaining activity at 3.75 µM: 101%
[2]; Well no.=7954
  remaining activity at 3.75 µM: 97.1%

## OC[C@H]1O[C@@H](n2cnc3c(NC4CCCCC4)ncnc32)[C@H](O)[C@@H]1O [N6-Cyclohexyladenosine]
[1]; Well no.=435
  remaining activity at 1.25 µM: 98.1%
[1]; Well no.=7053
  remaining activity at 1.25 µM: 96.4%
[1]; Well no.=7952
  remaining activity at 1.25 µM: 92%
[1]; Well no.=8083
  remaining activity at 1.25 µM: 106%
[2]; Well no.=435
  remaining activity at 3.75 µM: 100%
[2]; Well no.=7053
  remaining activity at 3.75 µM: 95.5%
[2]; Well no.=7952
  remaining activity at 3.75 µM: 92.4%
[2]; Well no.=8083
  remaining activity at 3.75 µM: 105%

## Cn1cnc2c(NC3CCCC3)ncnc21 [N6-Cyclopentyl-9-methyladenine]
[1]; Well no.=988
  remaining activity at 1.25 µM: 96.8%
[2]; Well no.=988
  remaining activity at 3.75 µM: 99.1%

## OC[C@H]1O[C@@H](n2cnc3c(NC4CCCC4)ncnc32)[C@H](O)[C@@H]1O [N6-Cyclopentyladenosine]
[1]; Well no.=330
  remaining activity at 1.25 µM: 85.8%
[2]; Well no.=330
  remaining activity at 3.75 µM: 88.2%

## CCNc1ncnc2c1ncn2[C@@H]1O[C@H](CO)[C@@H](O)[C@H]1O [N6-Ethyladenosine]
[1]; Well no.=7906
  remaining activity at 1.25 µM: 99.5%
[1]; Well no.=8517
  remaining activity at 1.25 µM: 100%
[2]; Well no.=7906
  remaining activity at 3.75 µM: 97.7%
[2]; Well no.=8517
  remaining activity at 3.75 µM: 95.1%

## CNc1ncnc2c1ncn2[C@@H]1O[C@H](CO)[C@@H](O)[C@H]1O [N6-Methyladenosine]
[1]; Well no.=930
  remaining activity at 1.25 µM: 97.7%
[1]; Well no.=8052
  remaining activity at 1.25 µM: 95.7%
[2]; Well no.=930
  remaining activity at 3.75 µM: 96.9%
[2]; Well no.=8052
  remaining activity at 3.75 µM: 96.2%
